PubChem BioAssay AID624408 (The Scripps Research Institute Molecular Screening Center, 2012)
The source made the active and inactive calls.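 How the source made its calls: active means IC50 at or below 10 µM; inactive means IC50 above 10 µM.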

System: parental CHO-K1, ATP-induced calcium, Fluo-8 fluorescence
Assay: Gq calcium signaling inhibition in parental CHO, late-stage follow-up, artefact control for OX1R antagonist project, cell-based, fluorescence, dose response (AID 624408)

Compound | IC50
COCCCNC(=O)CCC(=O)NNc1nc2ccccc2c2nc(-c3ccccc3)nn12 | > 59.6 µM (inactive)
Fc1cccc(Nc2nc3ccccc3n3cnnc23)c1 | > 59.6 µM (inactive)
CSc1cccc(N2CC(C(=O)NCCN3C(=O)S/C(=C\c4cccnc4)C3=O)CC2=O)c1 (stereo unspecified) | > 59.6 µM (inactive)
Cc1cccc(NC(=O)[C@@H]2CCCN2S(=O)(=O)c2ccc(Cl)cc2)c1 | > 59.6 µM (inactive)
O=c1cc(CN2CC(O)Cc3ccc4ccccc4c32)nc2sccn12 (stereo unspecified) | 55.4 µM (inactive)
CCOc1ccccc1C(=O)Nc1ccc2nc3n(c(=O)c2c1)CCCCC3 | > 59.6 µM (inactive)
CC(=C/c1ccccc1)/C=C1/SC(N2CCOCC2)=NC1=O | 52.1 µM (inactive)
COc1ccc(OC)c(S(=O)(=O)NCC(c2ccco2)N2CCc3ccccc32)c1 (stereo unspecified) | > 59.6 µM (inactive)
O=C(CSc1ccc(-c2ccccc2)nn1)c1cccs1 | > 59.6 µM (inactive)
Cc1c(NS(=O)(=O)c2cccc(C(=O)OCC(=O)N(C)C3CCCCC3)c2)c(=O)n(-c2ccccc2)n1C | > 59.6 µM (inactive)
CCc1cc2c(SCC(=O)N(CC)c3c(N)n(Cc4ccccc4)c(=O)[nH]c3=O)ncnc2s1 | > 59.6 µM (inactive)
O=C(CN1C(=O)/C(=C\c2cccc(Br)c2)Oc2ccccc21)NCC1CCCO1 (stereo unspecified) | > 59.6 µM (inactive)
Cc1ccccc1NC(=O)C1CCCN1S(=O)(=O)c1ccccc1C(F)(F)F (stereo unspecified) | > 59.6 µM (inactive)
COc1cc(OC)c(-c2nc3ccccc3s2)cc1OC | > 59.6 µM (inactive)
CCn1c(SCC(=O)Nc2ccc3c(c2)c2ccccc2n3CC)nnc1-c1cnccn1 | > 59.6 µM (inactive)
Cc1cccc(C=NNC(=O)c2cc3c(s2)-c2ccccc2CC3)c1 | > 59.6 µM (inactive)
Cc1ccc(-c2csc3nnc(SCC(=O)Nc4nsc(-c5ccccc5)n4)n23)cc1 | > 59.6 µM (inactive)
CCc1cc(C(=O)OCC(=O)N2CCC(c3ccccc3)=N2)sc1C | > 59.6 µM (inactive)
CCOC(=O)N1CCN(C(=O)CSc2ccc(-c3ccccc3)nn2)CC1 | > 59.6 µM (inactive)
Cc1noc(C)c1COc1ccc(C(=O)OCC(=O)N2CC(=O)Nc3ccccc32)cc1 | > 59.6 µM (inactive)
CN(N=Cc1cc([N+](=O)[O-])ccc1O)c1ccccc1 | > 59.6 µM (inactive)
CCN(CC)c1ccc(NC(=O)Cn2c(C(C)NC(=O)c3ccccc3)nc3ccccc32)cc1 (stereo unspecified) | > 59.6 µM (inactive)
Cc1cc(Cl)ccc1OCCCC(=O)NCCN1C(=O)S/C(=C\c2cccnc2)C1=O | 7.22 µM
CCSC1=C(C#N)C(c2ccccc2Cl)C(C(=O)c2cccs2)C(O)(C(F)(F)F)N1 (stereo unspecified) | 21.8 µM (inactive)
COc1cccc(/C=C2/Oc3ccccc3N(CC(=O)NCC3CCCO3)C2=O)c1 (stereo unspecified) | > 59.6 µM (inactive)
CSc1cccc(NC(=O)C2CCCN2S(=O)(=O)c2ccc(Br)s2)c1 (stereo unspecified) | 20.4 µM (inactive)
